Experimental data taken from patent publication US11524966B1 (Valo Early Discovery, Inc., priority 2017, dated 2022).

target: T1, USP28 (His-tagged USP28-FL-mammalian) (Homo sapiens, UniProt Q96RU2); assay: Ubiquitin-Rhodamine 110 Assay for USP28 Activity, Example A-1(a); assay type: biochemical; details: Ubiquitin-Rhodamine 110 assay, Example A-1(a); read-out: USP28 A-1(a) IC50 range
T1 construct: Expression of USP28 (1-1077)-TEV-6*His (pTT5 vector); made in house; host or cells: Expi293f cells (pTT5 vector)
T1 sequence (Q96RU2 1-1077): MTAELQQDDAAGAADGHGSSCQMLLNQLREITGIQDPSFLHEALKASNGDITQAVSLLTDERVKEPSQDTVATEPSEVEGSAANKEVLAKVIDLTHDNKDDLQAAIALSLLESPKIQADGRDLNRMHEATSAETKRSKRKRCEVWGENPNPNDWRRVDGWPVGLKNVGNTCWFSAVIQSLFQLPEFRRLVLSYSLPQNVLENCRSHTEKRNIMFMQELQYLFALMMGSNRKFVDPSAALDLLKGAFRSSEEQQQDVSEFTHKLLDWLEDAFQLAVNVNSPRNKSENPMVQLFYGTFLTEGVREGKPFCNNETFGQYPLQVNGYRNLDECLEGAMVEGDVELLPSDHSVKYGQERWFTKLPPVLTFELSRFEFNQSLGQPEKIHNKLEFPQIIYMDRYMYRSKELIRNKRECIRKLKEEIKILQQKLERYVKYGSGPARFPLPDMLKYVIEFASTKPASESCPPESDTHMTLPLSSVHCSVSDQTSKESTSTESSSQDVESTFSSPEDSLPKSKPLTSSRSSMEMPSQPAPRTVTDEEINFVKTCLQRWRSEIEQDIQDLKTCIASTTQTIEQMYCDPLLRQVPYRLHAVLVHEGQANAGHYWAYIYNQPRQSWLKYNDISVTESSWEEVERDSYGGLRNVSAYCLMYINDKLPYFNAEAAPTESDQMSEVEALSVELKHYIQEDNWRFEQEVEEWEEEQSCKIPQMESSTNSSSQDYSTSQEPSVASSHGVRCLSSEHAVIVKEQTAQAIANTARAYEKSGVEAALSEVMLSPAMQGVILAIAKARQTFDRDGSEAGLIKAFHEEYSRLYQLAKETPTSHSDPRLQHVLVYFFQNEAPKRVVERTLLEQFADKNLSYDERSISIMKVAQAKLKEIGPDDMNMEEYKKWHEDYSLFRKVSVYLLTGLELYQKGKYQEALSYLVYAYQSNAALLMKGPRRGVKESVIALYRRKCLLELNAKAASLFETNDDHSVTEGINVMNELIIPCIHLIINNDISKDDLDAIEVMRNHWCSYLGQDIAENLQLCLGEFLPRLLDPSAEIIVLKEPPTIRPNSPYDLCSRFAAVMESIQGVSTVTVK
In short: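 Full-length His-tagged human USP28 (1-1077, Expi293f-expressed), […], with 25 nM Ub-Rh110 (<<Km) in pH 8.0 Tris buffer with BME, BGG, Triton X-100. 10-point dilutions (25 μM-1.3 nM), 45 min at room temperature, citric acid stop, fluorescence 485/535 nm; IC50 by 4-parameter fit.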

`Cc1ccc2c(N)c(C(=O)N[C@H]3COc4cc(N5C[C@@H](N)[C@@H](F)C5)ccc4C3)sc2n1` (single isomer, unassigned) [Example 3-5] and `Cc1ccc2c(N)c(C(=O)N[C@H]3COc4cc(N5C[C@@H](F)[C@@H](N)C5)ccc4C3)sc2n1` (single isomer, unassigned) [Example 3-6] fall in the same range of IC50: 1 to 50 nM for the first, 1 to 50 nM for the second.

Compared with `COC[C@@H]1CN(c2nc3c(cc2F)C[C@H](NC(=O)c2sc4nc(C)ccc4c2N)CC3)C[C@@H]1N` (single isomer, unassigned) [Example 302], `COC[C@H]1CN(c2nc3c(cc2F)C[C@H](NC(=O)c2sc4nc(C)ccc4c2N)CC3)C[C@H]1N` (single isomer, unassigned) [Example 303] is higher in IC50: 50 to 200 nM for the first, 200 to 2000 nM for the second.

`CO[C@H]1CCN(c2ccc3c(n2)CC[C@H](NC(=O)c2sc4nc(C)ccc4c2N)C3)C[C@@H]1N` (single isomer, unassigned) [Example 315] and `CO[C@@H]1CCN(c2ccc3c(n2)CC[C@H](NC(=O)c2sc4nc(C)ccc4c2N)C3)C[C@H]1N` (single isomer, unassigned) [Example 316] fall in the same range of IC50: 50 to 200 nM for the first, 50 to 200 nM for the second.

`CCOC1CN(c2ccc3c(c2)OC[C@H](NC(=O)c2sc4nc(C)cc(C)c4c2N)C3)C[C@@H]1N` (stereo in doubt) [Example 323, 3-amino-N-[(3R)-7-[(3S,4R)-3-amino-4-ethoxypyrrolidin-1-yl]-3,4-dihydro-2H-1-benzopyran-3-yl]-4,6-dimethylthieno[2,3-b]pyridine-2-carboxamide] and `COC[C@@H]1CN(c2ccc3c(c2)OC[C@H](NC(=O)c2sc4nc(C)cc(C)c4c2N)C3)C[C@@H]1N` [Example 275, 3-amino-N-[(3R)-7-[(3R,4R)-3-amino-4-(methoxymethyl)pyrrolidin-1-yl]-3,4-dihydro-2H-1-benzopyran-3-yl]-4,6-dimethylthieno[2,3-b]pyridine-2-carboxamide] fall in the same range of IC50: 1 to 50 nM for the first, 1 to 50 nM for the second.

`COC[C@@]1(C)CN(c2ccc3c(n2)CC[C@H](NC(=O)c2sc4nc(C)ccc4c2N)C3)CC1N` (stereo in doubt) [Example 343, 3-amino-N-[(6S)-2-[(3S,4S)-4-amino-3-(methoxymethyl)-3-methylpyrrolidin-1-yl]-5,6,7,8-tetrahydroquinolin-6-yl]-6-methylthieno[2,3-b]pyridine-2-carboxamide] and `CO[C@@H]1CN(c2ccc3c(n2)CC[C@H](NC(=O)c2sc4nc(C)ccc4c2N)C3)C[C@@H]1N` [Example 269, 3-amino-N-[(6S)-2-[(3S,4R)-3-amino-4-methoxypyrrolidin-1-yl]-5,6,7,8-tetrahydroquinolin-6-yl]-6-methylthieno[2,3-b]pyridine-2-carboxamide] fall in the same range of IC50: 50 to 200 nM for the first, 50 to 200 nM for the second.

`COC[C@H]1C[C@H](N)CN1c1ccc2c(c1)OC[C@H](NC(=O)c1sc3nc(C)ccc3c1N)C2` [Example 261, 3-amino-N-[(3R)-7-[(2R,4S)-4-amino-2-(methoxymethyl)pyrrolidin-1-yl]-3,4-dihydro-2H-1-benzopyran-3-yl]-6-methylthieno[2,3-b]pyridine-2-carboxamide] and `COC[C@H]1C[C@@H](N)CN1c1ccc2c(c1)OC[C@H](NC(=O)c1sc3nc(C)ccc3c1N)C2` [Example 262, 3-amino-N-[(3R)-7-[(2R,4R)-4-amino-2-(methoxymethyl)pyrrolidin-1-yl]-3,4-dihydro-2H-1-benzopyran-3-yl]-6-methylthieno[2,3-b]pyridine-2-carboxamide] fall in the same range of IC50: 1 to 50 nM for the first, 1 to 50 nM for the second.

`COC[C@@H]1C[C@H](N)CN1c1ccc2c(c1)OC[C@H](NC(=O)c1sc3nc(C)ccc3c1N)C2` [Example 263, 3-amino-N-[(3R)-7-[(2S,4S)-4-amino-2-(methoxymethyl)pyrrolidin-1-yl]-3,4-dihydro-2H-1-benzopyran-3-yl]-6-methylthieno[2,3-b]pyridine-2-carboxamide] and `COC[C@H]1CN(c2ccc3c(c2)OC[C@H](NC(=O)c2sc4nc(C)cc(C)c4c2N)C3)C[C@H]1N` [Example 276, 3-amino-N-[(3R)-7-[(3S,4S)-3-amino-4-(methoxymethyl)pyrrolidin-1-yl]-3,4-dihydro-2H-1-benzopyran-3-yl]-4,6-dimethylthieno[2,3-b]pyridine-2-carboxamide] fall in the same range of IC50: 1 to 50 nM for the first, 1 to 50 nM for the second.

First: N#Cc1c(N2CC3CCC(C2)N3)cc2c(c1F)C[C@@H](NC(=O)c1cnc3c(c1)[C@@H]1C[C@@H]1CN3)CO2 [Example 264, (6aS,7aR)-N-[(3R)-6-cyano-7-{3,8-diazabicyclo[3.2.1]octan-3-yl}-5-fluoro-3,4-dihydro-2H-1-benzopyran-3-yl]-5H,6H,6aH,7H,7aH-cyclopropa[c]1,8-naphthyridine-2-carboxamide]
Second: N#Cc1c(N2CC3CCC(C2)N3)cc2c(c1F)C[C@@H](NC(=O)c1cnc3c(c1)[C@H]1C[C@H]1CN3)CO2 [Example 265, (6aR,7aS)-N-[(3R)-6-cyano-7-{3,8-diazabicyclo[3.2.1]octan-3-yl}-5-fluoro-3,4-dihydro-2H-1-benzopyran-3-yl]-5H,6H,6aH,7H,7aH-cyclopropa[c]1,8-naphthyridine-2-carboxamide]
The IC50 of the first is lower: 1 to 50 nM for the first, 50 to 200 nM for the second.

`CO[C@H]1CN(c2ccc3c(n2)CC[C@H](NC(=O)c2sc4nc(C)cnc4c2N)C3)C[C@@H]1NC(C)=O` [Example 266, 7-amino-N-[(6S)-2-[(3S,4S)-3-acetamido-4-methoxypyrrolidin-1-yl]-5,6,7,8-tetrahydroquinolin-6-yl]-3-methylthieno[2,3-b]pyrazine-6-carboxamide] and `CO[C@@]1(C)CN(c2ccc3c(n2)CC[C@H](NC(=O)c2sc4nc(C)cnc4c2N)C3)C[C@@H]1N` [Example 279, 7-amino-N-[(6S)-2-[(3S,4S)-4-amino-3-methoxy-3-methylpyrrolidin-1-yl]-5,6,7,8-tetrahydroquinolin-6-yl]-3-methylthieno[2,3-b]pyrazine-6-carboxamide] fall in the same range of IC50: 200 to 2000 nM for the first, 200 to 2000 nM for the second.

`CCO[C@@H]1CN(c2ccc3c(c2)CC[C@H](NC(=O)c2sc4nc(C)ccc4c2N)C3)C[C@@H]1N` [Example 267, 3-amino-N-[(2S)-6-[(3S,4R)-3-amino-4-ethoxypyrrolidin-1-yl]-1,2,3,4-tetrahydronaphthalen-2-yl]-6-methylthieno[2,3-b]pyridine-2-carboxamide] and `CCO[C@H]1CN(c2ccc3c(c2)CC[C@H](NC(=O)c2sc4nc(C)ccc4c2N)C3)C[C@H]1N` [Example 268, 3-amino-N-[(2S)-6-[(3R,4S)-3-amino-4-ethoxypyrrolidin-1-yl]-1,2,3,4-tetrahydronaphthalen-2-yl]-6-methylthieno[2,3-b]pyridine-2-carboxamide] fall in the same range of IC50: 50 to 200 nM for the first, 50 to 200 nM for the second.

First: CO[C@H]1CN(c2ccc3c(n2)CC[C@H](NC(=O)c2sc4nc(C)ccc4c2N)C3)C[C@H]1N [Example 270, 3-amino-N-[(6S)-2-[(3R,4S)-3-amino-4-methoxypyrrolidin-1-yl]-5,6,7,8-tetrahydroquinolin-6-yl]-6-methylthieno[2,3-b]pyridine-2-carboxamide]
Second: CO[C@]1(C)CN(c2ccc3c(n2)CC[C@H](NC(=O)c2sc4nc(C)cnc4c2N)C3)C[C@H]1N [Example 280, 7-amino-N-[(6S)-2-[(3R,4R)-4-amino-3-methoxy-3-methylpyrrolidin-1-yl]-5,6,7,8-tetrahydroquinolin-6-yl]-3-methylthieno[2,3-b]pyrazine-6-carboxamide]
The IC50 of the first is lower: 50 to 200 nM for the first, 200 to 2000 nM for the second.

`COC[C@@H]1CN(c2cc(F)c3c(c2F)OC[C@H](NC(=O)c2sc4nc(C)cc(C)c4c2N)C3)C[C@@H]1N` [Example 277, 3-amino-N-[(3R)-7-[(3R,4R)-3-amino-4-(methoxymethyl)pyrrolidin-1-yl]-5,8-difluoro-3,4-dihydro-2H-1-benzopyran-3-yl]-4,6-dimethylthieno[2,3-b]pyridine-2-carboxamide] and `COC[C@H]1CN(c2cc(F)c3c(c2F)OC[C@H](NC(=O)c2sc4nc(C)cc(C)c4c2N)C3)C[C@H]1N` [Example 278, 3-amino-N-[(3R)-7-[(3S,4S)-3-amino-4-(methoxymethyl)pyrrolidin-1-yl]-5,8-difluoro-3,4-dihydro-2H-1-benzopyran-3-yl]-4,6-dimethylthieno[2,3-b]pyridine-2-carboxamide] fall in the same range of IC50: 1 to 50 nM for the first, 1 to 50 nM for the second.
